Measured values published in US11298402B2, “Lysosomal degradation of lipids and proteins and method of use thereof” (University of Ottawa, priority 2015, dated 2022).

Key:
[1] = system: McA-RH7777 cells (A18-C3); experiment: Live imaging of lysosomal motility and lysosome-CLD interaction (kiss-and-run); type: cell-based, rat
Method: In certain non-limiting examples described herein, McA-RH7777 cells stably expressing human apoB-100 and human apoC-III (designated A18-C3) were used for the studies. […] In addition, these studies, particularly those concerning EPA- or DHA-triggered lysosomal motility and CLD degradation, were also performed using primary rat hepatocytes. Transfection of plasmids encoding proteins of interest, or transfection of siRNA specific for silencing target gene expression, was achieved using the FuGENE HP Extreme reagent (Roche). Representative gene silencing siRNA sequences, which are not meant to be limiting, are described in Table 1, and plasmids encoding proteins of interest are described in Table 2. The effectiveness of siRNA silencing was verified by Western-blotting of cellular content of the target proteins, and by intracellular localization assay using siRNA-Tracker (Mirus Bioscience). Twenty-four h after plasmid transfection, or 48 h after siRNA transfection, the cells were cultured in lipid-rich media containing fetal bovine serum (20%) and OA (0.4 mM). The lipid-laden cells were switched to fresh media supplemented with OA or EPA (0.4 mM). In live imaging experiments, LipidTOX Red (Life Technologies) and LysoTracker (Life Technologies) were added to media prior to EPA treatment, to visualize lipid droplets and lysosomes, respectively. For visualizing peroxisomes, Peroxisome-GFP (Invitrogen) was introduced to the cells 24 h prior to experiments. Quantification of cell lipid contents was achieved either by direct mass measurement (HPTLC) and counting the number of lipid droplets using Image J Lipid Droplet Counter Plug-In, or indirectly by Western blot analysis of cellular content of ADRP. Secretion of apoB and TG-rich lipoprotein was determined by Western blot analysis and metabolic labeling. Mitochondrial β-oxidation was measured using MitoSOX Red (Life Technologies) in situ. Autophagic flux was determined by using Cyto-ID assay (Enzo Life Science) and by monitoring GFP-LC3 clustering in situ. Interaction of Arl8b and subunits of the HOPS complex was determined in situ by the proximity ligation assay (Olink Biosience). Cytoplasmic pH was measured using the cytosolic pHrodo indicator reagent (Invitrogen). Live imaging of fluorescent-tagged proteins was performed 1 h post-EPA treatment. Cells were also collected at the time of EPA treatment for transmission EM and tomography, as well as immuno-EM. For movies, cells were imaged at 60 sec intervals every 5 min, for a total of 30 min.
Cells were grown on 35-mm glass bottom dishes (Ibidi GmbH München, Germany) for 16 h in DMEM supplemented with FBS (20%) and OA (0.4 mM). Cells were imaged using a Zeiss 510 META laser scanning confocal microscope with a heated CO2-controlled stage (5% CO2 at 37° C.). Images were captured at a frame-rate of 30 frame/sec using a 63×. N.A.1.4 objective. Recommended laser lines and filter combinations were used for each dye. For visualization of lipid droplets, lysosomes, mitochondria, and mitochondrial β-oxidation, the respective reagents LipidTOX Red (Invitrogen), LysoTracker (Life Technology), MitoTracker (Life Technology), MitoSox Red (Invitrogen), and Peroxisome-GFP BacMam2.0 (Invitrogen) were introduced into the cells, according to manufacturers' recommendations, prior to EPA treatment.
Cells were cultured with lipid-rich media containing OA (0.4 mM) for 16 h. The lipid-laden cells were switched to fresh media containing EPA (0.4 mM) for 1 h, and the lysosomal movement towards lipid droplets was recorded by time-lapse microscopy. Fluorescent intensity of lysosomal signals at the periphery of selected individual lipid droplet was measured using Image J Live Intensity Profiler Plug-in^31-33 over a period of 40 sec. Quantification for each condition was carried out for 60 individual lipid droplets from three independent experiments. Constant threshold was applied to all of the images in each experiment.

[2] = system: McA-RH7777 cells (A18-C3); experiment: Measurement of cytosolic pH (pHrodo); type: cell-based, rat; settings: OA or EPA treatment
Method: In certain non-limiting examples described herein, McA-RH7777 cells stably expressing human apoB-100 and human apoC-III (designated A18-C3) were used for the studies. […] In addition, these studies, particularly those concerning EPA- or DHA-triggered lysosomal motility and CLD degradation, were also performed using primary rat hepatocytes. Transfection of plasmids encoding proteins of interest, or transfection of siRNA specific for silencing target gene expression, was achieved using the FuGENE HP Extreme reagent (Roche). […] Quantification of cell lipid contents was achieved either by direct mass measurement (HPTLC) and counting the number of lipid droplets using Image J Lipid Droplet Counter Plug-In, or indirectly by Western blot analysis of cellular content of ADRP. Secretion of apoB and TG-rich lipoprotein was determined by Western blot analysis and metabolic labeling. Mitochondrial β-oxidation was measured using MitoSOX Red (Life Technologies) in situ. Autophagic flux was determined by using Cyto-ID assay (Enzo Life Science) and by monitoring GFP-LC3 clustering in situ. Interaction of Arl8b and subunits of the HOPS complex was determined in situ by the proximity ligation assay (Olink Biosience). Cytoplasmic pH was measured using the cytosolic pHrodo indicator reagent (Invitrogen). […]

[3] = system: hepatic cells; experiment: Prolonged oleate treatment (OA-induced steatosis) of hepatic cells; type: cell-based; settings: oleate 0.4 mM for up to 3 days
Description: FIG. 36 illustrates that the LD content in cells cultured under lipid-rich conditions may be manipulated by expression of different forms of Arl8b. Images in the top row show position of lysosomes in cells cultured in a lipid-rich medium (i.e. supplemented with oleate) for up to 4 days. After 1-day treatment with oleate, lysosomes (stained with LysoTracker, green) were accumulated in the perinuclear regions of cells. However after 2-day oleate treatment, lysosomes were relocated towards the LDs at cell periphery. The relocation of lysosomes from the perinuclear region toward cell periphery indicates perturbed lysosomal motility under oleate-treatment conditions, which leads to prolonged association of lysosomes with LDs. Accumulation/higher interaction of lysosomes on LDs became more pronounced after 3- and 4-day treatment with oleate, with clear rings of lysosomes around LDs. Expression of the GDP-bound form of Arl8b, or Arl8b^T34N (or Arl8b “DN”, dominant negative), protects hepatocytes from accumulation of LDs upon long-term treatment with oleate. Note that even after 3 days, cells expressing Arl8b “DN” were healthy and accumulated low numbers of LDs (middle row). In contrast, expression of the GTP-bound form of Arl8b, or Arl8b^Q75L (or Arl8b “DA”, dominant active), exacerbated accumulation of LDs in cells (images in the bottom row). In fact, the cells could not tolerate long-term treatment and started to die after day 2. This situation may be similar to that in advanced levels of fatty liver, which causes hepatocyte apoptosis;
In these cells, lysosomes were continuously in contact with CLD, indicative of stalled lysosomal motility. This persistent lysosomal interaction with CLDs (i.e. “kiss” without “run”) clearly indicates the interfered process of microautophagy and lack of a mechanism in the cells, after prolonged OA treatment, that facilitates dissociation of lysosomes from CLDs, blocking the engulfment process. Thus, phenotypically, accumulation of CLD in cells cultured in lipid-rich media (e.g. supplementation with 0.4 mM OA) is invariably associated with a compromised lysosomal motility (i.e. kiss-and-run).

Q: Which results are given for `CCCCCCCC/C=C\CCCCCCCC(=O)O` [OA, oleic acid, reference compound]?
A: lysosomal motility and direct lysosomal interaction with CLD ([1]; fatty acid added to lipid-laden cells, live imaging): reduced levels of interaction between lysosomes and lipid droplets; activation of microautolipophagy ([1]; oleate treatment): transient and is of low magnitude; duration of the brief activation of microautolipophagy ([1]; oleate treatment): 10 to 15 min; cytoplasmic pH [2]: neutral; steatosis (CLD accumulation) [3]: developed severe steatosis
